Key:
[1] = test system: Respiratory syncytial virus recombinant with luciferase (RSV-Luc5); assay: HEp-2 RSV-Luc5 384-well assay (EC50 RSVFLUC Hep2-384 v2), Example V; format: cell-based; conditions: human respiratory syncytial virus, HEp-2, 72 h, read-out: EC50 RSV FLuc Hep-2 384 V2 (per Ex. V)
Excerpt: Example V: HEp-2 RSV-Luc5 384-Well Assay (EC50 RSVFLUC Hep2-384 v2)
HEp-2 cell line was purchased from ATCC (Manassas, VA Cat #CCL-23) and maintained in Dulbecco's […] (DMEM) (Corning, New York, NY, Cat #15-018CM) supplemented with 10% fetal bovine serum (FBS) (Hyclone, Logan, UT, Cat #SH30071-03) and 1× Penicillin-Streptomycin-L-Glutamine (Corning, New York, NY, Cat #30-009-C1). Cells were passaged 2 times per week to maintain sub-confluent densities and were used for experiments at passage 5-20. Respiratory syncytial virus recombinant with luciferase (RSV-Luc5) (≥1×107 TCID50/ml) was purchased from Microbiologics (Saint Cloud, MN). Viral replication was determined in HEp-2 cells in the following manner.
Compounds are prepared in 100% DMSO in 384-well polypropylene plates (Greiner, Monroe, NC, Cat #784201) with 8 compounds per plate in grouped replicates of 4 at 10 serially diluted concentrations (1:3). The serially diluted compounds were transferred to low dead volume Echo plates (Labcyte, Sunnyvale, CA, Cat #LP-0200).
The test compounds were spotted to 384-well assay plates (Greiner, Monroe, NC, Cat #781091) at 200 nL per well. HEp-2 cells were harvested and suspended in DMEM (supplemented with 10% FBS and 1× Penicillin-Streptomycin-L-Glutamine) and seeded to the pre-spotted assay plates at 4,000 cells per well in 30 μL. RSV-Luc5 viruses were diluted in DMEM (supplemented with 10% FBS and 1× Penicillin-Streptomycin-L-(Glutamine) at 200,000 Infectious Units (IU) per mL and 10 μL per well was added to the assay plates containing cells and compounds, for an MOI=0.5. The assay plates were incubated for 3 days at 37° C. and 5% CO2. At the end of incubation, One-Glo reagent (Promega, Madison, WI, Cat #E6120) was prepared. The assay plates and One-Glo reagent were equilibrated to room temperature for at least 15 minutes. 40 μL per well of One-Glo reagent was added and the plates were incubated at room temp for 15 minutes before reading the luminescence signal on an EnVision multimode plate reader (Perkin Elmer, Waltham, MA). Remdesivir was used as positive control and DMSO was used as negative control. Values were normalized to the positive and negative controls (as 0% and 100% replication, respectively) and data was fitted using non-linear regression analysis by Gilead's dose response tool. The EC50 value for each compound was then determined as the concentration reducing the viral replication by 50%.

[2] = GI S9 stability, dog, Example Y; format: in vitro ADME; conditions: dog intestinal S9, 1.0 mg/mL protein, 2 μM compound, pH 7.4; for half-life at 2 μM: pooled intestinal S9 fractions, read-out: GIS9 DOG T½ (per Ex. Y)
Experimental: (§1) Example Y: GI S9 Stability Data
(§2) Stock solutions of test compounds in dimethyl sulfoxide (DMSO) having a final concentration of 10 mM were prepared and used in all experiments. Sekisui XenoTech (Kansas City, KS) provided pooled intestinal S9 fractions. All other chemicals were purchased from Sigma-Aldrich (St. Louis, MO) or VWR (West Chester, PA). Internal Standard/Quench (IS/Q) used to stop reactions was 100 nM labetalol in (by volume) methanol (10%) and acetonitrile (90%).
(§3) Stability in Intestinal S9 Fractions: Duplicate aliquots of test compound or positive control substrate were added to S9 stock diluted with phosphate buffered saline (137 mM NaCl, 2.7 mM KCl, 10 mM phosphate buffer), pH 7.4, to obtain a protein concentration of 1.0 mg/mL. The metabolic reactions were initiated by the addition of the substrates to the S9 reaction mixture to a final concentration of 2 μM. At 0, 10, 20, 30, 60 and 120 min, 25 μL aliquots of the reaction mixture were transferred to plates containing 225 μl of IS/Q solution. After quenching, the plates were centrifuged at 3000×g for 30 minutes. 150 μL aliquots of each supernatant were dried down then reconstituted with 300 μL water. Aliquots (10 μL) of the prepared samples were analyzed on a Thermo Q-Exactive mass spectrometer as described below.
(§4) Liquid Chromatography—Mass Spectrometry: Quantification of test compounds and control substrate was performed by analyte/internal standard peak area ratio (PAR) values measured on a Thermo Q-Exactive mass spectrometer coupled to a Dionex UltiMate 3000 HPLC with a Leap Technologies HTC PAL autosampler. The column used for analysis was a Waters Acquity BEH C18 (1.7 μm particle size, 2.1×50 mm). Mobile phase A consisted of 0.1% (v/v) formic acid in water. Mobile phase B consisted of 0.1% (v/v) formic acid in acetonitrile. Elution of analytes was achieved by a series of linear gradients varying the proportions of A and B. The mass spectrometer was calibrated on a weekly basis and mass tolerance of 5 ppm was used.
(§5) Metabolic stabilities in S9 fractions were determined by measuring the rates of disappearance of test compound and positive control substrate.
(§6) Data (% of substrate remaining) were plotted on a semi-log scale and fitted using an exponential decline model:
(§7) Ct=C0×e^−ln2/T1/2×t • Where Ct—% of substrate remaining at time=t; C0—% of substrate remaining at time=0; t—time; T1/2—half-life. • The Half-life (T1/2) is determined by the following equation: […]
(§8) Assuming a first-order reaction, the slope (k) is extrapolated from the aforementioned plotted data.

[3] = GI S9 stability, cyno, Example Y; format: in vitro ADME; conditions: cynomolgus monkey, pooled intestinal S9 fractions; cyno intestinal S9, 1.0 mg/mL protein, 2 μM compound, pH 7.4; read-out: GIS9 Cyno T½ (per Ex. Y)
Experimental: as §1, §2, §3, §4, §5, §6, §7, §8

| SMILES | EC50 [1] [µM] | half-life at 2 μM [2] [h] | half-life at 2 μM [3] [h] | GIS9 DOG T½ (per Ex. Y) [2] [h] |
| --- | --- | --- | --- | --- |
| N#C[C@]1(COC(=O)OC2CCCC2)O[C@@H](c2ccc3c(N)ncnn23)[C@H](O)[C@@H]1O [Compound 1, ((2R,3S,4R,5S)-5-(4-aminopyrrolo[2,1-f][1,2,4]triazin-7-yl)-2-cyano-3,4-dihydroxytetrahydrofuran-2-yl)methyl cyclopentyl carbonate] | 21.2 | 4.27 | 0.183 |  |
| CC(C)(C)COC(=O)OC[C@@]1(C#N)O[C@@H](c2ccc3c(N)ncnn23)[C@H](O)[C@@H]1O [Compound 2, ((2R,3S,4R,5S)-5-(4-aminopyrrolo[2,1-f][1,2,4]triazin-7-yl)-2-cyano-3,4-dihydroxytetrahydrofuran-2-yl)methyl neopentyl carbonate] | 9.49 | 2.7 | 0.0667 |  |
| CC[C@H](C)OC(=O)OC[C@@]1(C#N)O[C@@H](c2ccc3c(N)ncnn23)[C@H](O)[C@@H]1O [Compound 4, ((2R,3S,4R,5S)-5-(4-aminopyrrolo[2,1-f][1,2,4]triazin-7-yl)-2-cyano-3,4-dihydroxytetrahydrofuran-2-yl)methyl ((S)-sec-butyl) carbonate] | 24.1 | 7.7 | 0.367 |  |
| COC(=O)OC[C@@]1(C#N)O[C@@H](c2ccc3c(N)ncnn23)[C@H](O)[C@@H]1O [Compound 6, ((2R,3S,4R,5S)-5-(4-aminopyrrolo[2,1-f][1,2,4]triazin-7-yl)-2-cyano-3,4-dihydroxytetrahydrofuran-2-yl)methyl methyl carbonate] | 17.8 |  | 0.633 | 13.2 |
| CC(C)COC(=O)OC[C@@]1(C#N)O[C@@H](c2ccc3c(N)ncnn23)[C@H](O)[C@@H]1O [Compound 8, ((2R,3S,4R,5S)-5-(4-aminopyrrolo[2,1-f][1,2,4]triazin-7-yl)-2-cyano-3,4-dihydroxytetrahydrofuran-2-yl)methyl isobutyl carbonate] | 11.5 | 5.18 | 0.133 |  |
| CCCOC(=O)OC[C@@]1(C#N)O[C@@H](c2ccc3c(N)ncnn23)[C@H](O)[C@@H]1O [Compound 9, ((2R,3S,4R,5S)-5-(4-aminopyrrolo[2,1-f][1,2,4]triazin-7-yl)-2-cyano-3,4-dihydroxytetrahydrofuran-2-yl)methyl propyl carbonate] | 13.3 | 2.6 | 0.317 |  |
| CC[C@@H](C)OC(=O)OC[C@@]1(C#N)O[C@@H](c2ccc3c(N)ncnn23)[C@H](O)[C@@H]1O [Compound 10, ((2R,3S,4R,5S)-5-(4-aminopyrrolo[2,1-f][1,2,4]triazin-7-yl)-2-cyano-3,4-dihydroxytetrahydrofuran-2-yl)methyl ((R)-sec-butyl) carbonate] | 24.7 |  | 0.15 | 13.2 |
| CC(C)OC(=O)OC[C@@]1(C#N)O[C@@H](c2ccc3c(N)ncnn23)[C@H](O)[C@@H]1O [Compound 11, ((2R,3S,4R,5S)-5-(4-aminopyrrolo[2,1-f][1,2,4]triazin-7-yl)-2-cyano-3,4-dihydroxytetrahydrofuran-2-yl)methyl isopropyl carbonate] | 31.2 |  | 0.583 | 13.2 |
| N#C[C@]1(COC(=O)OC2CCOCC2)O[C@@H](c2ccc3c(N)ncnn23)[C@H](O)[C@@H]1O [Compound 12, ((2R,3S,4R,5S)-5-(4-aminopyrrolo[2,1-f][1,2,4]triazin-7-yl)-2-cyano-3,4-dihydroxytetrahydrofuran-2-yl)methyl (tetrahydro-2H-pyran-4-yl) carbonate] | > 50 |  | 4.57 |  |
| CC(C)(C)OC(=O)OC[C@@]1(C#N)O[C@@H](c2ccc3c(N)ncnn23)[C@H](O)[C@@H]1O [Compound 13, ((2R,3S,4R,5S)-5-(4-aminopyrrolo[2,1-f][1,2,4]triazin-7-yl)-2-cyano-3,4-dihydroxytetrahydrofuran-2-yl)methyl tert-butyl carbonate] | 12.1 | 1.6 | 1.2 |  |

From patent publication US20230382940A1, “ANTIVIRAL COMPOUNDS AND METHODS OF MAKING AND USING THE SAME” (Gilead Sciences, Inc., priority 2022, published 2023)
